Assay results: the supplement of paper PMC6580486

Experiments:
SkMc = tested on: SkMc
Procedure: (§1)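 60-agent targeted drug screens (Drug Screen V3 on epithelioid sarcoma cultures PCB490-3/4/5, PCB495, EPS cell lines ESX, VA-ES-BJ, FU-EPS-1 and SkMc myoblasts; PPTI screen v2.1 on human UPS PCB197 and canine UPS S1-12). 384-well plates, 72 h, CellTiter-Glo viability; IC50 by Hill curve fit. 10000 nM = no IC50 achieved (top reported value).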

FU-EPS-1 = tested on: FU-EPS-1
Procedure: as §1

ESX = tested on: ESX
Procedure: as §1

PCB-495 = tested on: PCB-495 (human epithelioid sarcoma primary culture)
Procedure: as §1

PCB-490-5 = tested on: PCB-490-5 (human epithelioid sarcoma primary culture)
Procedure: as §1

PCB-490-3 = tested on: PCB-490-3 (human epithelioid sarcoma primary culture)
Procedure: as §1

PCB-490-4 = tested on: PCB-490-4 (human epithelioid sarcoma primary culture)
Procedure: as §1

VA-ES-BJ = tested on: VA-ES-BJ
Procedure: as §1

s1-12 = tested on: s1-12 (canine undifferentiated pleomorphic sarcoma culture)
Procedure: as §1

pcb-00197 = tested on: pcb-00197 (human undifferentiated pleomorphic sarcoma culture)
Procedure: as §1

Compound | IC50 cell viability (SkMc) [nM] | IC50 cell viability (FU-EPS-1) [µM] | IC50 cell viability (ESX) [nM] | IC50 cell viability (PCB-495) [µM] | IC50 cell viability (PCB-490-5) [µM] | IC50 cell viability (PCB-490-3) [µM] | IC50 cell viability (PCB-490-4) [µM] | IC50 cell viability (VA-ES-BJ) [µM] | IC50 cell viability (s1-12) [nM] | IC50 cell viability (pcb-00197) [µM]
Clc1ccc(NN=C(c2ccccc2)c2ccccn2)nc1 [JIB-04] | 1410 | 2.4 | 600 | 1.14 | 1.62 | > 10 | 3.73 | 1.69 |  | 
Cn1c(=O)n(-c2ccc(C(C)(C)C#N)cc2)c2c3cc(-c4cnc5ccccc5c4)ccc3ncc21 [BEZ235] | 370 | 0.14 | 20 | 0.43 | 0.2 | 1.36 | 0.26 | 0.08 |  | 
O=C(O)CC[C@H](O)C(=O)O [L-a-Hydroxyglutaric acid] | > 10000 | > 10 | > 10000 | > 10 | > 10 | > 10 | > 10 | > 10 |  | 
CN[C@@H](C)C(=O)N[C@H](C(=O)N1CCC[C@H]1c1nc(C(=O)c2ccc(F)cc2)cs1)C1CCCCC1 [LCL161] | > 10000 | > 10 | 1800 | > 10 | > 10 | > 10 | > 10 | 3.15 |  | 
COCC[n+]1c2c(n(Cc3cnccn3)c1C)C(=O)c1ccccc1C2=O [YM155] | 280 | 0.01 | 20 | 0.07 | 0.16 | 0.15 | 0.27 | 0.01 |  | 
C[C@]1(O)C[C@@H](c2nc(-c3ccc4ccc(-c5ccccc5)nc4c3)c3c(N)nccn32)C1 [OSI-906] | > 10000 | > 10 | 20 | > 10 | > 10 | > 10 | > 10 | > 10 | 1070 | > 10
CC(C)N(CCCNC(=O)Nc1ccc(C(C)(C)C)cc1)C[C@H]1O[C@@H](n2cc(Br)c3c(N)ncnc32)[C@H](O)[C@@H]1O [SGC0946] | 100 | 1.48 | 620 | 0.6 | > 10 | > 10 | > 10 | 0.49 |  | 
CNC(=O)CN1CCC(Oc2cc3c(Nc4cccc(Cl)c4F)ncnc3cc2OC)CC1 [AZD8931] | > 10000 | > 10 | 4750 | > 10 | > 10 | > 10 | > 10 | > 10 |  | 
O=C1NC(=O)C(c2cnc3ccccn23)=C1c1cn2c3c(cc(F)cc13)CN(C(=O)N1CCCCC1)CC2 | 200 | > 10 | 1520 | > 10 | > 10 | > 10 | > 10 | > 10 |  | 
COc1cc2nc(N3CCCN(C)CC3)nc(NC3CCN(Cc4ccccc4)CC3)c2cc1OC | 150 | 1.01 | 200 | 1.38 | 6.69 | 3.14 | 1.82 | 6.57 | 1720 | 6.05
CC(C)n1nc(-c2ccc3oc(N)nc3c2)c2c(N)ncnc21 [INK 128] | 20 | > 10 | 10 | 0.14 | 0.1 | 0.26 | 0.06 | 0.03 |  | 
CN1CCC(CNc2ccc3ncc(-c4cccc(OC(F)(F)F)c4)n3n2)CC1 [SGI-1776] | 2840 | 1.7 | 150 | 7.51 | 1.85 | 4.5 | 2.03 | 4.81 |  | 
Cc1cc(Nc2cc(N3CCN(C)CC3)nc(Sc3ccc(NC(=O)C4CC4)cc3)n2)n[nH]1 [Tozasertib] | 2620 | > 10 | > 10000 | > 10 | > 10 | > 10 | 3.33 | > 10 |  | 
CS(=O)(=O)c1cccc(CNc2nc(Nc3ccc4c(c3)CCC(=O)N4)ncc2C(F)(F)F)c1 | > 10000 | > 10 | > 10000 | > 10 | > 10 | > 10 | > 10 | > 10 |  | 
Cc1ccc(Nc2nccc(N(C)c3ccc4c(C)n(C)nc4c3)n2)cc1S(N)(=O)=O [Pazopanib] | > 10000 | > 10 | > 10000 | > 10 | > 10 | > 10 | > 10 | > 10 |  | 
CN1CCc2c(c3ccccc3n2Cc2ccc(C(=O)NO)cc2)C1 [Tubastatin A] | > 10000 | > 10 | > 10000 | > 10 | > 10 | > 10 | > 10 | > 10 |  | 
Cc1ccc(S(=O)(=O)/C=C/C#N)cc1 [BAY-11-7082] | > 10000 | > 10 | > 10000 | > 10 | 0.77 | > 10 | 1.93 | 0.49 |  | 
N#CC[C@H](C1CCCC1)n1cc(-c2ncnc3[nH]ccc23)cn1 [Ruxolitinib] | > 10000 | > 10 | > 10000 | > 10 | > 10 | > 10 | > 10 | > 10 |  | 
CCOc1cc(C(C)(C)C)ccc1C1=N[C@@](C)(c2ccc(Cl)cc2)[C@@](C)(c2ccc(Cl)cc2)N1C(=O)N1CCN(CCCS(C)(=O)=O)CC1 | > 10000 | > 10 | > 10000 | > 10 | > 10 | > 10 | > 10 | > 10 | > 10000 | > 10
Cc1nc(Nc2ncc(C(=O)Nc3c(C)cccc3Cl)s2)cc(N2CCN(CCO)CC2)n1 [Dasatinib] | 50 | > 10 | > 10000 | > 10 | 0.39 | 1.27 | 0.17 | > 10 |  | 
